Assay results taken from patent publication US9833497B2, “Human originated EGF domain proteins and use of the same” (CHENGDU SOURCEBIO LIMITED-LIABILITY COMPANY, priority 2013, dated 2017).

Experiments:
Type in all cases: cell-based
[1] = system: Proteus vulgaris; test: MIC against Gram-negative bacteria: Proteus vulgaris; conditions: Proteus vulgaris; 5×10^5 CFU/mL; 10 h cultivation at 37° C.
Procedure, shortened: (§1)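 Broth microdilution, LB medium, final inoculum 5×10^5 CFU/mL from McFarland 0.5 cultures. Recombinant human EGF domain proteins tested in two-fold steps, n=3. MIC: lowest concentration, no growth.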

[2] = system: Pseudomonas aeruginosa; test: MIC against Gram-negative bacteria: Pseudomonas aeruginosa; conditions: Pseudomonas aeruginosa; 5×10^5 CFU/mL; 10 h cultivation at 37° C.
Procedure, shortened: as §1

[3] = system: Aeromonas hydrophila; test: MIC against Gram-negative bacteria: Aeromonas hydrophila; conditions: Aeromonas hydrophila; 5×10^5 CFU/mL; 10 h cultivation at 37° C.
Procedure, shortened: as §1

[4] = system: Moraxella catarrhalis; test: MIC against Gram-negative bacteria: Moraxella catarrhalis; conditions: Moraxella catarrhalis; 5×10^5 CFU/mL; 10 h cultivation at 37° C.
Procedure, shortened: as §1

[5] = system: E. coli DH5α; test: Antibacterial activity: MIC and growth curve against E. coli DH5α in 96-well plate; conditions: minimal inhibitory concentration against E. coli DH5α; 96-well plate, 5×10^5 CFU/mL, 37° C., judged after 8 h
Procedure, shortened: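 Log-phase bacteria (OD600 ~0.5) resuspended in LB at 5×10^5 CFU/mL, exposed to recombinant protein at 50, 25, 12.5 μg/mL final in triplicate, 37 °C shaking at 175 rpm. OD600 read every 30 min; MIC is lowest concentration showing no growth.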

[6] = system: Enterobacter cloacae; test: MIC against Gram-negative bacteria: Enterobacter cloacae; conditions: Enterobacter cloacae; 5×10^5 CFU/mL; 10 h cultivation at 37° C.
Procedure, shortened: as §1

[7] = system: E. coli BL21; test: MIC against Gram-negative bacteria: E. coli BL21; conditions: E. coli BL21; 5×10^5 CFU/mL; 10 h cultivation at 37° C.
Procedure, shortened: as §1

[8] = system: Serratia marcescens; test: MIC against Gram-negative bacteria: Serratia marcescens; conditions: Serratia marcescens; 5×10^5 CFU/mL; 10 h cultivation at 37° C.
Procedure, shortened: as §1

[9] = system: Klebsiella pneumonia; test: MIC against Gram-negative bacteria: Klebsiella pneumonia; conditions: Klebsiella pneumonia; 5×10^5 CFU/mL; 10 h cultivation at 37° C.
Procedure, shortened: as §1

[10] = system: Proteus mirabilis; test: MIC against Gram-negative bacteria: Proteus mirabilis; conditions: Proteus mirabilis; 5×10^5 CFU/mL; 10 h cultivation at 37° C.
Procedure, shortened: as §1

[11] = system: Citrobacter diversus; test: MIC against Gram-negative bacteria: Citrobacter diversus; conditions: Citrobacter diversus; 5×10^5 CFU/mL; 10 h cultivation at 37° C.
Procedure, shortened: as §1

PRT1372 (GSRRCPGDCRGHGLCEDGVCVCDAGYSGEDC; listed as Homo sapiens)
12.5 µg/mL: MIC against P. aeruginosa [2] | MIC [5] | MIC against E. cloacae [6] | MIC against S. marcescens [8] | MIC against P. mirabilis [10] | MIC against C. diversus [11]
25 µg/mL: MIC against P. vulgaris [1] | MIC against A. hydrophila [3] | MIC against M. catarrhalis [4] | MIC against E. coli BL21 [7] | MIC against K. pneumonia [9]

PRT1373 (STRSCPGGCRGRGQCLDGRCVCEDGYSGEDC; listed as Homo sapiens)
25 µg/mL: MIC [5] | MIC against P. mirabilis [10]
50 µg/mL: MIC against P. vulgaris [1] | MIC against C. diversus [11]
12.5 µg/mL: MIC against P. aeruginosa [2] | MIC against A. hydrophila [3] | MIC against M. catarrhalis [4] | MIC against E. cloacae [6] | MIC against E. coli BL21 [7] | MIC against S. marcescens [8] | MIC against K. pneumonia [9]

PRT1374 (GVRQCPNDCSQHGVCQDGVCICWEGYVSEDC; listed as Homo sapiens)
12.5 µg/mL: MIC against P. vulgaris [1] | MIC against A. hydrophila [3] | MIC against M. catarrhalis [4] | MIC against E. coli BL21 [7] | MIC against S. marcescens [8] | MIC against K. pneumonia [9] | MIC against P. mirabilis [10] | MIC against C. diversus [11]
25 µg/mL: MIC against P. aeruginosa [2] | MIC against E. cloacae [6]
50 µg/mL: MIC [5]

PRT1375 (SIRTCPSNCHGRGRCEEGRCLCDPGYTGPTC; listed as Homo sapiens)
50 µg/mL: MIC against P. mirabilis [10]
25 µg/mL: MIC against P. vulgaris [1] | MIC against A. hydrophila [3] | MIC against M. catarrhalis [4]
12.5 µg/mL: MIC against P. aeruginosa [2] | MIC [5] | MIC against E. cloacae [6] | MIC against E. coli BL21 [7] | MIC against S. marcescens [8] | MIC against K. pneumonia [9] | MIC against C. diversus [11]

PRT1376 (ATRMCPADCRGRGRCVQGVCLCHVGYGGEDCG; listed as Homo sapiens)
12.5 µg/mL: MIC against P. vulgaris [1] | MIC against A. hydrophila [3] | MIC against M. catarrhalis [4] | MIC against E. coli BL21 [7] | MIC against K. pneumonia [9]
25 µg/mL: MIC against S. marcescens [8]
50 µg/mL: MIC against P. aeruginosa [2] | MIC [5] | MIC against E. cloacae [6] | MIC against P. mirabilis [10] | MIC against C. diversus [11]

PRT1377 (PASACPGGCGPRELCRAGQCVCVEGFRGPDC; listed as Homo sapiens)
50 µg/mL: MIC against P. vulgaris [1] | MIC against A. hydrophila [3] | MIC against M. catarrhalis [4] | MIC against E. coli BL21 [7] | MIC against K. pneumonia [9]
12.5 µg/mL: MIC against P. aeruginosa [2] | MIC against E. cloacae [6] | MIC against S. marcescens [8] | MIC against P. mirabilis [10] | MIC against C. diversus [11]
25 µg/mL: MIC [5]

PRT1378 (AIQTCPGDCRGRGECHDGSCVCKDGYAGEDCG; listed as Homo sapiens)
50 µg/mL: MIC [5]
25 µg/mL: MIC against E. coli BL21 [7] | MIC against S. marcescens [8] | MIC against K. pneumonia [9] | MIC against P. mirabilis [10] | MIC against C. diversus [11]
12.5 µg/mL: MIC against P. vulgaris [1] | MIC against P. aeruginosa [2] | MIC against A. hydrophila [3] | MIC against M. catarrhalis [4] | MIC against E. cloacae [6]

PRT1379 (GWPSCPGDCQGRGRCVQGVCVCRAGFSGPDC; listed as Homo sapiens)
25 µg/mL: MIC against P. vulgaris [1] | MIC against A. hydrophila [3] | MIC against M. catarrhalis [4]
50 µg/mL: MIC against P. aeruginosa [2] | MIC [5] | MIC against E. cloacae [6] | MIC against P. mirabilis [10]
12.5 µg/mL: MIC against E. coli BL21 [7] | MIC against S. marcescens [8] | MIC against K. pneumonia [9] | MIC against C. diversus [11]

PRT1380 (SQRSCPRGCSQRGRCEGGRCVCDPGYTGDDC; listed as Homo sapiens)
25 µg/mL: MIC [5]
50 µg/mL: MIC against P. vulgaris [1] | MIC against A. hydrophila [3] | MIC against M. catarrhalis [4] | MIC against E. coli BL21 [7] | MIC against S. marcescens [8] | MIC against K. pneumonia [9] | MIC against P. mirabilis [10]
12.5 µg/mL: MIC against P. aeruginosa [2] | MIC against E. cloacae [6] | MIC against C. diversus [11]

PRT1381 (GMRSCPRGCSQRGRCENGRCVCNPGYTGEDC; listed as Homo sapiens)
12.5 µg/mL: MIC against M. catarrhalis [4] | MIC [5] | MIC against E. cloacae [6]
50 µg/mL: MIC against P. vulgaris [1] | MIC against P. aeruginosa [2] | MIC against A. hydrophila [3]
25 µg/mL: MIC against E. coli BL21 [7] | MIC against S. marcescens [8] | MIC against K. pneumonia [9] | MIC against P. mirabilis [10] | MIC against C. diversus [11]

PRT1382 (GVRSCPRGCSQRGRCKDGRCVCDPGYTGEDC; listed as Homo sapiens)
100 µg/mL: MIC against K. pneumonia [9]
12.5 µg/mL: MIC against A. hydrophila [3] | MIC against M. catarrhalis [4] | MIC against E. coli BL21 [7] | MIC against S. marcescens [8] | MIC against P. mirabilis [10]
25 µg/mL: MIC against P. vulgaris [1] | MIC [5]
50 µg/mL: MIC against P. aeruginosa [2] | MIC against E. cloacae [6] | MIC against C. diversus [11]

PRT1383 (GTRSCPWDCGEGGRCVDGRCVCWPGYTGEDC; listed as Homo sapiens)
12.5 µg/mL: MIC against P. vulgaris [1] | MIC against P. aeruginosa [2] | MIC against M. catarrhalis [4] | MIC [5] | MIC against E. cloacae [6] | MIC against E. coli BL21 [7]
25 µg/mL: MIC against K. pneumonia [9] | MIC against C. diversus [11]
50 µg/mL: MIC against A. hydrophila [3] | MIC against S. marcescens [8] | MIC against P. mirabilis [10]

PRT1384 (STRTCPRDCRGRGRCEDGECICDTGYSGDDC; listed as Homo sapiens)
50 µg/mL: MIC against P. vulgaris [1] | MIC against K. pneumonia [9]
12.5 µg/mL: MIC against M. catarrhalis [4] | MIC against E. coli BL21 [7]
25 µg/mL: MIC against P. aeruginosa [2] | MIC against A. hydrophila [3] | MIC [5] | MIC against E. cloacae [6] | MIC against S. marcescens [8] | MIC against P. mirabilis [10] | MIC against C. diversus [11]

PRT1385 (GVRSCPGDCNQRGRCEDGRCVCWPGYTGTDC; listed as Homo sapiens)
12.5 µg/mL: MIC against P. aeruginosa [2] | MIC [5] | MIC against E. cloacae [6] | MIC against P. mirabilis [10] | MIC against C. diversus [11]
25 µg/mL: MIC against P. vulgaris [1]
50 µg/mL: MIC against A. hydrophila [3] | MIC against M. catarrhalis [4] | MIC against E. coli BL21 [7] | MIC against S. marcescens [8] | MIC against K. pneumonia [9]

PRT1386 (GSRACPRDCRGRGRCENGVCVCNAGYSGEDC; listed as Homo sapiens)
25 µg/mL: MIC against P. vulgaris [1] | MIC against P. aeruginosa [2] | MIC [5] | MIC against E. cloacae [6]
12.5 µg/mL: MIC against A. hydrophila [3] | MIC against M. catarrhalis [4] | MIC against E. coli BL21 [7] | MIC against S. marcescens [8] | MIC against K. pneumonia [9] | MIC against P. mirabilis [10] | MIC against C. diversus [11]

PRT1387 (IMDDCSTNCNGNGECISGHCHCFPGFLGPDCA; listed as Homo sapiens)
12.5 µg/mL: MIC against P. vulgaris [1] | MIC against M. catarrhalis [4] | MIC [5] | MIC against E. cloacae [6] | MIC against E. coli BL21 [7]
50 µg/mL: MIC against P. aeruginosa [2] | MIC against A. hydrophila [3]
25 µg/mL: MIC against S. marcescens [8] | MIC against K. pneumonia [9] | MIC against P. mirabilis [10] | MIC against C. diversus [11]
